Measurements reported in patent publication US20060009637A1, “Molecules as produced by endothermic chemical reactions with anhydrous D-ribose” (priority 2004, published 2006).

Columns and labels:
solubility in water = type: physicochemical; details: for solubility in water: result in words, monohydrate
heart failure = details: people with heart failure; cited from earlier work
[1] = toxicity of the monohydrate of D-ribose

## O=C[C@H](O)[C@H](O)[C@H](O)CO [anhydrous D-ribose, D-ribose]
Solubility in water; per kilogram of anhydrous D-ribose, gives clear translucent amber viscous solution if enough time is allowed
  water needed to dissolve a kilogram of anhydrous D-ribose: less than 168 grams

## CN(CC(=O)O)C(=N)N [creatine]
Heart failure
  ejection fraction: did not improve
  skeletal muscle action: increasing both strength and endurance

## O.O=C[C@H](O)[C@H](O)[C@H](O)CO [ribose monohydrate, D-ribose monohydrate]
[1]
  toxicity: virtually no toxicity
Solubility in water; listed as H2O-ribose product
  solubility in water: exceptionally high
Solubility in water
  solubility in water: very soluble in water
